In US20240270821A1, “GIP/GLP1/GCG TRI-RECEPTOR AGONISTS AND USES THEREOF” (priority 2023, published 2024):
Like-named read-outs stand apart in the source and are kept apart here. Starred links: 1 amine or outer side, 2 acyl side, 3 side chain; linkers in the order of their positions; H or OH if unused. Non-standard residues stand in square brackets, D forms with d. Groups on a side chain read outwards from the residue. *: point of attachment. C18 diacid = O=C(O)CCCCCCCCCCCCCCCCC(=O)*; αMePhe(2-F) = C[C@](N)(Cc1ccccc1F)C(=O)O; γGlu = O=C(O)[C@H](CCC(=O)[*:2])N[*:1]; αMe4Pal = C[C@](N)(Cc1ccncc1)C(=O)O; αMeY = C[C@](N)(Cc1ccc(O)cc1)C(=O)O; 4Pal = N[C@@H](Cc1ccncc1)C(=O)O; αMeL = CC(C)C[C@](C)(N)C(=O)O; αMeS = C[C@](N)(CO)C(=O)O; Orn = NCCC[C@H](N)C(=O)O; AEEA = NCCOCCOCC(=O)O; Aib = CC(C)(N)C(=O)O

Key:
hGIPR [1] = molecular target: T1, hGIPR (Homo sapiens, UniProt P48546); experiment: Functional cAMP activity in the presence of 1% HSA; format: cell-based; settings: read-out: cAMP Rel EC50, hGIPR
T1 sequence (P48546 22-466): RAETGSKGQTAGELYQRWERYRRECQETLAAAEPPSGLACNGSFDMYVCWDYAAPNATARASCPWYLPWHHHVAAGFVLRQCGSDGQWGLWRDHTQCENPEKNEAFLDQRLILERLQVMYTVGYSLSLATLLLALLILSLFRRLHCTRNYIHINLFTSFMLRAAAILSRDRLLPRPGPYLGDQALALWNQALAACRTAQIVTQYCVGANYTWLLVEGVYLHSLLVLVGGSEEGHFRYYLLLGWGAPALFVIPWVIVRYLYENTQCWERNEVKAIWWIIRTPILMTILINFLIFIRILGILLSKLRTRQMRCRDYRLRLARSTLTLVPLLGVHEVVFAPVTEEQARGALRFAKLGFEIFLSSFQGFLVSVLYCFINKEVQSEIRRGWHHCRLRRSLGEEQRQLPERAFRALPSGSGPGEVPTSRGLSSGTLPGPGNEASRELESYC

hGLP-1R [2] = molecular target: T2, hGLP-1R (Homo sapiens, UniProt P43220); experiment: Functional cAMP activity in the presence of 1% HSA; format: cell-based; settings: read-out: cAMP Rel EC50, hGLP-1R
T2 sequence (P43220 24-463): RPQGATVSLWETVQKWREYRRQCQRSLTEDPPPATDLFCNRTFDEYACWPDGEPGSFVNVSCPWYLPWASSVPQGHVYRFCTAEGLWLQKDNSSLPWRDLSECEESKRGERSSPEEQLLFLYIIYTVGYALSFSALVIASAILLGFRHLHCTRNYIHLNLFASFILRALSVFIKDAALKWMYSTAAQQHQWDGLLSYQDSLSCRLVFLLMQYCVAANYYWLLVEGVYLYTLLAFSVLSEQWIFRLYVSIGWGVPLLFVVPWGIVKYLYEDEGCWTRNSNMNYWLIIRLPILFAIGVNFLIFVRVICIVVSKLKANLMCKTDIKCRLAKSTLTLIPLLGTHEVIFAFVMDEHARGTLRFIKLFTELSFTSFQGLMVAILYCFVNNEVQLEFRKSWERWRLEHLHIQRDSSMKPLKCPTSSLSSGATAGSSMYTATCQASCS

human GcgR = human GcgR (Homo sapiens, UniProt P47871); experiment: Functional cAMP activity in the presence of 1% HSA; format: cell-based; settings: read-out: cAMP Rel EC50, hGcgR
Sequence of human GcgR (P47871 26-477): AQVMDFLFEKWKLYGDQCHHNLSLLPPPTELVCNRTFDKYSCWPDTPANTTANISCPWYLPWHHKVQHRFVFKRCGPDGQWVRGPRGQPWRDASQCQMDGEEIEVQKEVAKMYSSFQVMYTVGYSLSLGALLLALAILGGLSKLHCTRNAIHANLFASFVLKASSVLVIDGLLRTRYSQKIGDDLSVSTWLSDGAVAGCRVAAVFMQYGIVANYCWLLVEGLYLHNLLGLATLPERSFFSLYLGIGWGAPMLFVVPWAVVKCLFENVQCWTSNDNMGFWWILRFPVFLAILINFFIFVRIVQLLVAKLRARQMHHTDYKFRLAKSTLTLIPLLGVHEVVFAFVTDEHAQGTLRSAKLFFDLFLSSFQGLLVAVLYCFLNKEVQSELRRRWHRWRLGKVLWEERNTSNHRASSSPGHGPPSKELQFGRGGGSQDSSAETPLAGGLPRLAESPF

hGIPR [3] = molecular target: T1, hGIPR; experiment: Functional cAMP activation in the presence of 0.1% casein (no HSA); format: cell-based; settings: read-out: Relative cAMP EC50, hGIPR;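 as to Relative cAMP EC50, hGIPR: intracellular cAMP rise after 30 min at 37 °C read by HTRF against a standard curve, scaled between buffer alone (0%) and top control ligand concentration (100%), four-parameter fit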;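 as to Relative cAMP EC50, hGLP-1R: intracellular cAMP rise after 30 min at 37 °C read by HTRF, normalized between buffer only (0%) and maximal control ligand (100%), four-parameter variable-slope fit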;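 as to Relative cAMP EC50, hGcgR: intracellular cAMP rise after 30 min at 37 °C, read by HTRF against a cAMP standard curve, scaled from buffer only (0%) to maximal control ligand response (100%)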
hGLP-1R [4] = molecular target: T2, hGLP-1R; experiment: as above; format: cell-based; settings: read-out: Relative cAMP EC50, hGLP-1R
hGcgR = hGcgR (Homo sapiens, UniProt P47871); experiment: as above; format: cell-based; settings: read-out: Relative cAMP EC50, hGcgR;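 also: intracellular cAMP rise after 30 min at 37 °C, read by HTRF against a cAMP standard curve, scaled from buffer only (0%) to maximal control ligand response (100%)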
Sequence of hGcgR (P47871 26-477): as above

in vivo [5] = experiment: in vivo; set-up: species or system cynomolgus monkeys; settings: both sexes, cynomolgus monkey, iv, 10 nmol/kg
Method: (§1) A study is designed to evaluate the oral bioavailability of Example polypeptides in cynomolgus monkeys. […] Standards and controls are prepared in cynomolgus monkey plasma, and any dilutions required to bring samples into the quantitative range are also performed in control cynomolgus monkey plasma. To control assay variability, an internal standard (IS) is added to all the standards and samples. The Examples and IS are extracted from 100% monkey plasma (50 μL) by protein precipitation using isopropyl alcohol and methanol (50:50 v/v). The samples are then centrifuged (3000 rpm for 10 minutes) and the supernatant is transferred to a Siricco Protein Precipitation Plate. The samples are loaded on a Sep-Pak tC18 SPE microelution plate that is conditioned with 2% formic acid in acetonitrile and water. The compounds are then washed with 2% formic acid in water and eluted using 2% formic acid in acetonitrile into a plate containing 5× Invitrosol and 1% formic acid in water prior to injecting an aliquot (10 μL) on to Xselect CSH C18, 3.5 μm, 2.1×20 mm for LC/MS analysis.
Blood samples are collected over 504 hours. Plasma is harvested from blood samples by centrifugation and stored frozen (−70° C.) until analysis. Plasma concentrations of the molecules are detected using the bioanalytical method described above.

in vivo [6] = experiment: in vivo; set-up: species or system cynomolgus monkeys; settings: both sexes, cynomolgus monkey, po; for bioavailability: 10 mg; for AUC(0-inf) / CL/F / Cmax / Tmax / half-life: 300 mg
Method: as §1
[…] Blood samples are collected up to 504 hours post-dose. Plasma is harvested from blood samples by centrifugation and stored frozen (−70° C.) until analysis. Plasma concentrations of the molecules are detected using the bioanalytical method described above.

[7] = Body weight in diet-induced obese C57BL/6 mice; format: in vivo; settings: 10 nmol/kg SC QD, percent of starting weight, DIO mice, mean ± SEM n=5
How it was run: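 Male C57BL/6 DIO mice (41-50 g, 5 per group, randomized by weight) on calorie-rich diet received subcutaneous doses 30-90 min before dark onset, QD or Q3D for 9-16 days. Body weight measured daily, expressed as percent of starting weight, mean±SEM.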

human GLP1-R = human GLP1-R (Homo sapiens, UniProt P43220); experiment: GLP1-R internalization assay in HEK293 cells; format: cell-based; settings: for EC50: HEK293 cells expressing SNAP-GLP-1R, read-out: GLP1R Internalization EC50; for Internalization % TOP: normalized to maximum concentration of GLP-1 (100%)
Sequence of human GLP1-R (P43220 24-463): as the sequence (P43220 24-463) above

[8] = tested on: Intestinal organoid from Göttingen minipig jejunum tissue, 2D monolayer; experiment: Cell based in vitro permeability (Papp) assay; format: in vitro ADME
How it was run: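 2D monolayers derived from Göttingen minipig jejunal organoids on transwell inserts. Basal samples collected at 20 min in the presence of C10. Peptide in apical and basal compartments quantified by LC/MS to give Papp.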

[9] = Pepsin stability assay in simulated gastric fluid; format: in vitro ADME; settings: pH 1.2, % Intact (SD)
Method: A pepsin stability assay is utilized to determine the relative stability of Example polypeptides in a simulated gastric proteolytic environment. […] The relative amount of intact peptide is quantified by mass spectrometry (MS). […] The examples were dissolved in 50 mM Tris buffer pH 8.0 at a concentration of 10 mg/mL as a stock solution. Pepsin A was reconstituted in SGF at 10 mg/mL. […] The example peptide and pepsin solutions were then incubated at 37° C. in a shaking incubator set at 100 rpm. Samples (25 μL) were withdrawn at different time intervals and quenched with 100 mM ammonium bicarbonate pH 9 (50 μL) to stop proteolytic activity. All samples were centrifuged, and the supernatants were analyzed by LC/MS to determine the remaining intact peptide.

[10] = in the presence of 0.1% casein (no HSA), geometric mean

Row | Compound | EC50 (hGIPR [1]) | EC50 (hGLP-1R [2]) | EC50 (human GcgR) | EC50 (hGIPR [3]) | EC50 (hGLP-1R [4]) | EC50 (hGcgR) | AUC(0-inf) (in vivo [5]) | clearance (in vivo [5]) | half-life (in vivo [5]) | bioavailability (in vivo [6]) | AUC(0-inf) (in vivo [6]) | CL/F (in vivo [6]) | Cmax (in vivo [6]) | Tmax (in vivo [6]) | half-life (in vivo [6]) | Body weight (%) ([7]; 14 days) | EC50 (human GLP1-R) | Internalization % TOP (human GLP1-R) | Relative Papp (Compared to internal standard) [8] | remaining at 0.25 h, 0.4 mg/mL [9] | other results
1 | CC[C@H](C)[C@H](NC(=O)[C@H](CC(C)C)NC(=O)[C@](C)(Cc1ccc(O)cc1)NC(=O)[C@@H](CCC(=O)O)NC(=O)[C@@H](NC(=O)[C@H](Cc1ccccc1)NC(=O)[C@H](CCC(=O)O)NC(=O)[C@](C)(Cc1ccncc1)NC(=O)[C@H](CCC(N)=O)NC(=O)[C@H](C)NC(=O)[C@H](CCCCNC(=O)COCCOCCNC(=O)CC[C@H](NC(=O)CCCCCCCCCCCCCCCCC(=O)O)C(=O)O)NC(=O)[C@H](CCCN)NC(=O)[C@H](CC(=O)O)NC(=O)[C@H](CC(C)C)NC(=O)[C@](C)(CC(C)C)NC(=O)[C@@H](NC(=O)[C@](C)(CO)NC(=O)[C@H](Cc1ccncc1)NC(=O)[C@H](CC(=O)O)NC(=O)[C@H](CO)NC(=O)[C@@H](NC(=O)[C@](C)(Cc1ccccc1F)NC(=O)[C@@H](NC(=O)CNC(=O)[C@H](CCC(N)=O)NC(=O)C(C)(C)NC(=O)[C@@H](N)Cc1ccc(O)cc1)[C@@H](C)O)[C@@H](C)O)[C@@H](C)CC)[C@@H](C)CC)C(=O)N[C@@H](CCC(=O)O)C(=O)NCC(=O)NCC(=O)N1CCC[C@H]1C(=O)N[C@@H](CO)C(=O)N[C@@H](CO)C(=O)NCC(=O)N[C@@H](C)C(=O)N1CCC[C@H]1C(=O)N1CCC[C@H]1C(=O)N1CCC[C@H]1C(=O)N[C@@H](CO)C(=O)NCC(=O)N[C@@H](CO)C(N)=O [Example 699] | 0.566 nM | 25.3 nM | 144 nM | 6.63 pM | 0.196 nM | 1.35 nM | 9.23 ± 1.64 µM·h | 1.11 mL/h/kg | 2.12 ± 0.571 days | 1.3% | 7.15 µM·h | 1.51 mL/min/kg | 187 nM | 2.75 h | 2060 min | 56.85 ± 2.42 % | 14.9 nM | 102% | 0.51 | 97.9% | Body weight (%) ([7]; 7 days): 68.34 ± 0.85 %
2 | H-Y[Aib]QGTFTSD[4Pal]SQ[αMeL]LDKK([γGlu-γGlu-C18 diacid])AQ[αMe4Pal]AFIEYLIAGGPSSGAPPPSGE-NH2 [Example 883] | 9.41 nM | 120 nM | 578 nM |  |  |  | 8.69 ± 0.623 µM·h | 1.15 mL/h/kg | 2.62 ± 2.25 days | 0.3% | 1.28 µM·h | 11.1 mL/min/kg | 43.6 nM | 2 h | 1740 min |  | 23.9 nM | 77.1% |  |  | EC50 (hGIPR [3]; [10]): 77.9 pM; EC50 (hGLP-1R [4]; [10]): 1.05 nM; EC50 (hGcgR; [10]): 4.02 nM
3 | H-Y[Aib]QGT[αMePhe(2-F)]TSD[4Pal]SILLDKK([γGlu-γGlu-C18 diacid])AQ[Aib]AFIEYLEEGGPSSGAPPPSGTGE-NH2 [Example 510] | 6.4 nM | 74.2 nM | 564 nM | 62.7 pM | 0.71 nM | 5.44 nM | 14.5 ± 3.42 µM·h | 0.716 mL/h/kg | 2.33 ± 0.55 days | 0.7% | 5.09 µM·h | 5.17 mL/min/kg | 126 nM | 2 h | 2820 min |  | 11.8 nM | 113% |  |  | 
4 | H-Y[Aib]QGT[αMePhe(2-F)]TSD[4Pal][αMeS]I[αMeL]LD[Orn]K([AEEA-γGlu-C18 diacid])AQ[αMe4Pal]EFI[dE][αMeY]LIEGGPSSGAPPPSGGGE-NH2 [Example 741] | 0.817 nM | 32.4 nM | 200 nM | 6.12 pM | 0.239 nM | 2.01 nM | 9.55 ± 2.28 µM·h | 1.09 mL/h/kg | 1.34 ± 0.176 days | 0.8% | 4.2 µM·h | 2.28 mL/min/kg | 95.8 nM | 3.75 h | 3490 min | 59.42 ± 2.94 % | 50.1 nM |  |  | 111% | remaining at 0.5 h, 0.4 mg/mL [9]: 104%; remaining at 1 h, 0.4 mg/mL [9]: 105%
5 | H-Y[Aib]QGT[αMePhe(2-F)]TSD[4Pal][αMeS]ILLD[Orn]K([γGlu-γGlu-C18 diacid])AQ[Aib][Orn]FI[dE]YLIEGGPSSGEPPPSGTGE-NH2 [Example 548] | 3.48 nM | 38 nM | 295 nM | 54.7 pM | 0.478 nM | 3.94 nM | 10.5 ± 1.58 µM·h | 0.971 mL/h/kg | 2.22 ± 0.0251 days | 0.6% | 3.58 µM·h | 2.7 mL/min/kg | 75.7 nM | 1.5 h | 2700 min |  | 17.8 nM | 109% |  |  | 
6 | H-Y[Aib]QGT[αMePhe(2-F)]TSD[4Pal][αMeS]I[αMeL]LD[Orn]K([AEEA-γGlu-C18 diacid])AQ[αMe4Pal]EFI[dE][αMeY]LIEGGPSSGAPPPSGSE-NH2 [Example 712] | 0.584 nM | 30.8 nM | 171 nM | 6.89 pM | 0.258 nM | 1.36 nM | 12.4 ± 0.862 µM·h | 0.81 mL/h/kg | 2.25 ± 0.254 days | 0.9% | 6.18 µM·h | 1.85 mL/min/kg | 124 nM | 3.75 h | 3110 min | 63.61 ± 3.73 % | 35.3 nM | 109% | 0.60 | 92.4% | Body weight (%) ([7]; 7 days): 69.4 ± 0.60 %; remaining at 0.5 h, 0.4 mg/mL [9]: 91.4%; remaining at 1 h, 0.4 mg/mL [9]: 93.5%
7 | H-Y[Aib]QGT[αMePhe(2-F)]TSD[4Pal]SI[αMeL]LD[Orn]K([γGlu-γGlu-C18 diacid])AQ[αMe4Pal][Orn]FI[dE][αMeY]LIEGGPSSGEPPPETE-NH2 [Example 686] | 0.542 nM | 19.1 nM | 169 nM | 7.76 pM | 0.298 nM | 2.43 nM | 7.04 ± 1.29 µM·h | 1.46 mL/h/kg | 1.73 ± 0.0979 days | 3.6% | 14.2 µM·h | 2.93 mL/min/kg | 249 nM | 1 h | 2680 min | 72.73 ± 3.65 % | 33.2 nM | 101% | 0.60 |  | 
